In US20060292243A1, “Arsenic compounds for the treatment of the arsenic-sensitive blast-cell related diseases” (priority 2005, published 2006):
Marks after values point to notes of the source that are not given here.

Legend:
OVA-specific IgE = OVA-specific IgE in serum of OVA-immunized mice; format: in vivo, BALB/c mice
Procedure: (§1) BALB/c mice (female, 6-8 weeks) were immunized with ovalbumin (OVA) at day 0, 14, 21 and 28. 38 days later, animals were injected with arsenic trioxide (ATO) i.p. for 7 days and antigen challenges with OVA were performed at day 42, 43, 44. At day 45, the airway enhanced pause (PenH) values were measured. 48 hours after the last antigen challenges, the mice were sacrificed, the trachea cannulated, and bronchoalveolar lavage (BAL) was performed by four repeated lavages with balanced salt solution (HBSS) injected into the lungs via the trachea. Total cell counts were performed with a hemocytometer after staining with trypan blue, and then cytospins were prepared, and a differential count of 300 cells per slide was performed. To obtain the absolute number of each leukocyte subtype in the lavage, the percentage of each cell type was multiplied by the total number of cells that were recovered from the bronchoalveolar lavage fluid (BALF). Eotaxin in the BALF was measured via ELISA. Four groups of mice were treated as Table 3.1.
Group A mice were challenged by PBS only and then treated by PBS, too. Group B mice were immunized by ovalbumin and then treated by PBS only. […]
After antigen challenges, mice serum were prepared and OVA-specific IgE values in serum were detected for evidence of immunization.

Eotaxin = Eotaxin in BALF by ELISA, OVA-immunized mice; format: in vivo, BALB/c mice
Procedure: as §1
Group A mice were challenged by PBS only and then treated by PBS, too. Group B mice were immunized by ovalbumin and then treated by PBS only. Group C mice were immunized by ovalbumin and then treated by arsenic trioxide in a dosage of 2.5 mg per kg for mice. Group D mice were challenged by ovalbumin as group B and C and then treated by arsenic trioxide in a dosage of 5 mg/kg.

ssDNA = assay: Serum IgG anti-ssDNA ELISA in SLE model mice; format: in vivo, NZB/NZW mice
Procedure: (§2) In vivo studies on the activity of arsenic compound were carried out by using an experimental animal model of human Systemic Lupus Erythematosus. NZB/NZW denotes the mouse strain that spontaneously develops an autoimmune syndrome having notable similarities to human Systemic Lupus Erythematosus. Autoimmune disease in NZB/NZW mice is characterized by antinuclear antibodies (IgG) production about 4 months of age, and glomerulonephritis with proteinuria is developed when at 9 months of age, and that is the major cause of death (uremia).
(§3) At 24 weeks of age, mice (3 groups) were treated 3 times per week with PBS (Group I as positive control), 2.5 mg/kg of As2O3 (Group II), or 5 mg/kg of As2O3 (Group III) administered intraperitoneally. The treatment was stopped at 28 weeks of age. Mice were observed daily for clinical signs of disease and for mortality and were bled every 4 weeks for determination of anti-DNA antibody production.
(§4) Standard ELISA assay to measure the serum levels of anti-DNA antibodies was performed as follows. The plates were coated 10 μg/mL mBSA 4° C. overnight before coating dsDNA and ssDNA diluted with PBS to concentration of 7.5 μg/mL. ssDNA was prepared by boiling for 20 min then placed on ice immediately for 20 min. After overnight incubation at 4° C., the plates were washed and blocked with gelatin-PBS solution. The serum was diluted and then added to the appropriate wells, which were then incubated at 37° C. for 45 min. Horseradish peroxidase-comjugated anti-mouse γ-chain-specific antibodies were added. After incubation at 37° C. for 50 min, then room temperature for 10 min, 2,2′-azino-bisC3-ethylbenzthiazoline-6-sulphonic acid (ABTS) solution was used as substrate and the absorbance was measured at 405 nm. The level of anti-DNA IgG is presented as ELISA units (EU/ml) compared with mAb 10F10. The OD value generated by 74 ng/ml of 10F10 Ab was defined as 1 EU/ml for anti-DNA IgG. The level of anti-nucleosome IgG was calculated as EU by comparison with 10F10 Ab. The absorbance value generated by 231 ng/ml of 10F10 Ab was defined as 1 EU/ml of anti-nucleosome IgG.

dsDNA = assay: Serum IgG anti-dsDNA ELISA in SLE model mice; format: in vivo, NZB/NZW mice
Procedure: as §2, §3, §4

[1] = Group C: OVA, ATO 2.5 mg/kg i.p. for 7 days
[2] = Group D: OVA, ATO 5 mg/kg i.p. for 7 days
[3] = 2.5 mg/kg i.p. 3 times per week, before treatment
[4] = 2.5 mg/kg, 4 weeks after treatment
[5] = 2.5 mg/kg, 8 weeks after treatment
[6] = 2.5 mg/kg, 12 weeks after treatment
[7] = 5 mg/kg i.p. 3 times per week, before treatment
[8] = 5 mg/kg, 4 weeks after treatment
[9] = 5 mg/kg, 8 weeks after treatment
[10] = 5 mg/kg, 12 weeks after treatment

Substance: arsenic trioxide
- OVA-specific IgE (SI.) in serum, Mean (OVA-specific IgE; [1]): 2.20 SI.
- OVA-specific IgE (SI.) in serum, Mean (OVA-specific IgE; [2]): 1.96 SI.
- eotaxin in BALF, Mean (Eotaxin; [1]): 12.38* pg/ml
- eotaxin in BALF, Mean (Eotaxin; [2]): 16.00 pg/mL
- effect on eotaxin level after antigen challenge (Eotaxin; especially 2.5 mg/kg, group C vs group B p<0.05): diminish the eotaxin level
- IgG Anti-ssDNA titer (ssDNA; [3]): 0.155 ELISA Unit
- IgG Anti-ssDNA titer (ssDNA; [4]): 0.347 ELISA Unit
- IgG Anti-ssDNA titer (ssDNA; [5]): 0.400 ELISA Unit
- IgG Anti-ssDNA titer (ssDNA; [6]): 0.105 ELISA Unit
- IgG Anti-ssDNA titer (ssDNA; [7]): 0.176 ELISA Unit
- IgG Anti-ssDNA titer (ssDNA; [8]): 0.303 ELISA Unit
- IgG Anti-ssDNA titer (ssDNA; [9]): 0.296 ELISA Unit
- IgG Anti-ssDNA titer (ssDNA; [10]): 0.201 ELISA Unit
- IgG Anti-dsDNA titer (dsDNA; [3]): 0.262 ELISA Unit
- IgG Anti-dsDNA titer (dsDNA; [4]): 0.572 ELISA Unit
- IgG Anti-dsDNA titer (dsDNA; [5]): 0.464 ELISA Unit
- IgG Anti-dsDNA titer (dsDNA; [6]): 0.442 ELISA Unit
- IgG Anti-dsDNA titer (dsDNA; [7]): 0.362 ELISA Unit
- IgG Anti-dsDNA titer (dsDNA; [8]): 0.285 ELISA Unit
- IgG Anti-dsDNA titer (dsDNA; [9]): 0.357 ELISA Unit
- IgG Anti-dsDNA titer (dsDNA; [10]): 0.702 ELISA Unit
- anti-DNA antibody levels in sera compared to PBS (Tables 4.1 and 4.2, ssDNA and dsDNA) (dsDNA; NZB/NZW mice, 2.5 or 5 mg/kg): significantly lower anti-DNA antibody levels
